The results in this text go back to US20040186098A1 (Amgen Inc., priority 1997, published 2004).

One assay deals with hair cells. Briefly: Intramiddle ear neomycin-induced ototoxicity, compound given systemically (subcutaneous), hair cell loss. The class given is in vivo, guinea pig. To be noted: 10 mg s.c. at day 0, 2 and 7. How it is done: Twenty guinea pigs were treated either with sensorineurotrophic compound or vehicle prior to administration of the ototoxin. Ten of the guinea pigs were subcutaneously injected with freshly made sensorineurotrophic compound solution. On the day of injection, 100 mg of the sensorineurotrophic compound was dissolved in 1 ml of ethanol, then 20% of the Intralipids solution was added to make a final volume of 3 ml. The final sensorineurotrophic compound concentration was 10 mg/0.3 ml. Each animal was subcutaneously injected with 0.3 ml of the sensorineurotrophic compound solution at day 0, day 2 and day 7. Another 10 animals were subcutaneously injected with 0.3 ml of the vehicle (20% Intralipids), individually at day 0, day 2 and day 7.
At day 2, guinea pigs used in this study were administered neomycin or neomycin vehicle in the middle ear.
Animals were anesthetized with intramuscular injection of a mixture of ketamine (80 mg/kg) and xylazine (4 mg/kg). Through a post-auricular incision, the right bulla was identified. A hole was drilled to open the middle ear cavity (care was taken not to injure the tympanic annulus or ossicles). A piece of gelfoam (˜2 mm^3) was soaked with neomycin solution (fresh made at a concentration of 50 mg/ml) and was inserted into the round window niche. The remaining neomycin solution (˜100 μl) was then injected into the middle ear cavity. […]

In assay [1] the test system is hair cells in rat organ of Corti explant. Description: Organ of Corti (cochlea) explant culture, hair cell survival after neomycin. The format is cell-based. The protocol:
The sensorineurotrophic compound stock solution was stored at room temperature and prepared fresh for each culture. The stock solution was diluted in 10 μl of 100% EtOH for every milligram of sensorineurotrophic compound in the stock solution (approximately 250 mM). This solution of 250 mM sensorineurotrophic compound in 100% EtOH was diluted in normal culture medium to working concentrations of 50000 nM, 5000 nM, 500 nM, 50 nM, 5000 pM, 500 pM, 50 pM, 10 pM, 5 pM, 1 pM, 0.5 pM, 0.1 pM, and 0.01 pM. […]
Organ of Corti explants were obtained from P3-P4 Wistar rats. […] The organ of Corti then was transferred to a 35-mm diameter Petri dish containing cold PBS supplemented with glucose and was ready to be cultured. […]
To identify and count hair cells in the organ of Corti, a direct immunostaining method was used to label the actin present naturally in the stereocilia bundles of the hair cells. […] The explants were observed under a Nikon Diaphot-300 inverted fluorescence microscope, using FITC filters and fluorescence optics.
In each cochlea, the number of hair cells was counted in 2-3 sections, 175 μm in length each. Only the sections in the middle turn of the cochlea were analyzed. […]

For the compound `CCC(C)(C)C(=O)C(=O)N1CCC[C@H]1C(=O)OCCCc1cccnc1` [Compound I], the “difference in the loss of hair cells between vehicle and treated animals” value with hair cells (5 mg neomycin middle ear at day 2, day 16) is listed as about 31%. Moreover, the hair cell loss entry in the assay with hair cells (5 mg neomycin middle ear, vehicle animals about 75%) was “about 45%”. Besides, the surviving hair cells in assay [1] (Compound I 0.05 pM together with 0.6 mM neomycin) was 31.8%±16.4. Further, in assay [1] (Compound I 0.05 pM together with neomycin, neomycin alone 95%), the “loss of hair cells” value is “around 70%”.
